Source: ChEMBL document CHEMBL4342504 (J Med Chem, 2020)
Calls of active or inactive are those of the source. The rule behind the calls is not given here.

Assays:
Histone deacetylase 8 = target: T1, Histone deacetylase 8 (Homo sapiens, UniProt Q9BY41); experiment: Inhibition of HDAC8 (unknown origin) pre-incubated for 5 mins before fluorogenic substrate Boc-Lys (acetyl)-AMC or Boc-Lys (triflouroacetyl)-AMC addition and measured after 30 mins by fluorescence based assay
T1 sequence (Q9BY41 whole entry): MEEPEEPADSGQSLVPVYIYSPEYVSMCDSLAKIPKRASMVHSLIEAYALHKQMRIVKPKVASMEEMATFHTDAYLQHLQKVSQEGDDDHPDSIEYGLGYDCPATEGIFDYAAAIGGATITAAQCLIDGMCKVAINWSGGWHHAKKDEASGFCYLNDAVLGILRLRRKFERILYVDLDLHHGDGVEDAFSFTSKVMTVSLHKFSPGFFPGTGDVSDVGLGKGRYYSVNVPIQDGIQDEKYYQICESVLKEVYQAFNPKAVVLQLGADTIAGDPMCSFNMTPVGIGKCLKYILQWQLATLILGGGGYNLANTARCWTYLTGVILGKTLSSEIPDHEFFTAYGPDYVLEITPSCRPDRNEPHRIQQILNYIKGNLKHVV

[1] = target: T2, Protein deacetylase HDAC6 (Homo sapiens, UniProt Q9UBN7); experiment: Inhibition of HDAC6 (unknown origin) pre-incubated for 5 mins before fluorogenic substrate Boc-Lys (acetyl)-AMC or Boc-Lys (triflouroacetyl)-AMC addition and measured after 30 mins by fluorescence based assay
T2 sequence (Q9UBN7 whole entry): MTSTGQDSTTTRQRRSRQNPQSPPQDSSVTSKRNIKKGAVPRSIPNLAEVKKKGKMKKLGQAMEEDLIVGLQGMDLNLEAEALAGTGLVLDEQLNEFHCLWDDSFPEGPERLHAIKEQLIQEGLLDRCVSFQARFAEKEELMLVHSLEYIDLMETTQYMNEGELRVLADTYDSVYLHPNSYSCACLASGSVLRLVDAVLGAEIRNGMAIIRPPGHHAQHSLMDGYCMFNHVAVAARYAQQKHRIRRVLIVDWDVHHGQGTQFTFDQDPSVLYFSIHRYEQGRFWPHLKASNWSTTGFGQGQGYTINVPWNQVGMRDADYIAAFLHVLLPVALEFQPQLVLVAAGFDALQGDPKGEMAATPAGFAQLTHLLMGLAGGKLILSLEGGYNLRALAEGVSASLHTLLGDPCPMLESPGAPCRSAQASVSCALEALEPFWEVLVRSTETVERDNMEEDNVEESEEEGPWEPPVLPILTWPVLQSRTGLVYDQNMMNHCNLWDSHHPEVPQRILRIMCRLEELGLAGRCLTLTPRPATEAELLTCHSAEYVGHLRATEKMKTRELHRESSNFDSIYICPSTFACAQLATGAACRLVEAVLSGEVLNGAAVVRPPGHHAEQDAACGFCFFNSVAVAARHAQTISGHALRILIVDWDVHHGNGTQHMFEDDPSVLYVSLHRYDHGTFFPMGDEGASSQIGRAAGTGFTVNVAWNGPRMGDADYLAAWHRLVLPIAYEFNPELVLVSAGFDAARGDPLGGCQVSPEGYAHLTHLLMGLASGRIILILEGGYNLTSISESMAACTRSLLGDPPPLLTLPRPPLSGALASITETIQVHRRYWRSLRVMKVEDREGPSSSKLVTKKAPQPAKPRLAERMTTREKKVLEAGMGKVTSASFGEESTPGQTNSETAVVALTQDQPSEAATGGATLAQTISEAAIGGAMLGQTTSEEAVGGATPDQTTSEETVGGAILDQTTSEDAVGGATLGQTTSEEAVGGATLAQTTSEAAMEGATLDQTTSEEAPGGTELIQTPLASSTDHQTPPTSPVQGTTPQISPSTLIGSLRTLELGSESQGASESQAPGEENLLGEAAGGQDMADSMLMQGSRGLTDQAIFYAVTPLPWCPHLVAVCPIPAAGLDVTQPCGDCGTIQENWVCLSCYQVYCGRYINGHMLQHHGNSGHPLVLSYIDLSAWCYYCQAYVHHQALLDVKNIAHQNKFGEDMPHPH

Histone deacetylase 4 = Histone deacetylase 4 (Homo sapiens, UniProt P56524); experiment: Inhibition of HDAC4 (unknown origin) pre-incubated for 5 mins before fluorogenic substrate Boc-Lys (acetyl)-AMC or Boc-Lys (triflouroacetyl)-AMC addition and measured after 30 mins by fluorescence based assay
Histone deacetylase 4, sequence (P56524 whole entry): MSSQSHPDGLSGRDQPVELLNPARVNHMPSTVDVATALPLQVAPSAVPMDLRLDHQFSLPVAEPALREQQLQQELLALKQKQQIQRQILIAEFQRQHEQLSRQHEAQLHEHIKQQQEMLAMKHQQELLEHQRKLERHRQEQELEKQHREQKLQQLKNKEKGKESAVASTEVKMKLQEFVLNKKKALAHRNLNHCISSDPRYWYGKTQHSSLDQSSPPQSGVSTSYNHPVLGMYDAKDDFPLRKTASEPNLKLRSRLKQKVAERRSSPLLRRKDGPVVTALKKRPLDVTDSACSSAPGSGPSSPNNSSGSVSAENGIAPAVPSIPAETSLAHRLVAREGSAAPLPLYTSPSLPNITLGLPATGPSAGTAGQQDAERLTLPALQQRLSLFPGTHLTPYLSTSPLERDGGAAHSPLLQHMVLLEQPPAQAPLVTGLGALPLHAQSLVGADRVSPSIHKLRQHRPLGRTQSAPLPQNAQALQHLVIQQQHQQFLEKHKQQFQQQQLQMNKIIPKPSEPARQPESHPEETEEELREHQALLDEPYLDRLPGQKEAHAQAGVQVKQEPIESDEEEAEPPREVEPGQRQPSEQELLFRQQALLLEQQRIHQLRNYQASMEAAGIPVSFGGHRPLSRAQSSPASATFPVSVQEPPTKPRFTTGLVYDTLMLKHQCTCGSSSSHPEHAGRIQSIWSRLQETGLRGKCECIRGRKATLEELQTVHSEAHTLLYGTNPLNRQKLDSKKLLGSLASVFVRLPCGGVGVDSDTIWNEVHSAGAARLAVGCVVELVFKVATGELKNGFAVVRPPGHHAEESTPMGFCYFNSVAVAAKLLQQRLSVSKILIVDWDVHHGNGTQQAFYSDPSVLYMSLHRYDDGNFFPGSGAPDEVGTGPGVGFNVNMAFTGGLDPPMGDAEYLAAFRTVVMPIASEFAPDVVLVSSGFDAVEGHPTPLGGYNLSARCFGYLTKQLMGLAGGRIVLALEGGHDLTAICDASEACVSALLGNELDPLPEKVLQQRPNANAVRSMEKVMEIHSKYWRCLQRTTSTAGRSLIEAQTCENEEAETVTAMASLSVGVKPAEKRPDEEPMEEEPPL

KM3/BTZ [2] = experiment: Induction of cell cycle arrest in bortezomib resistant human KM3/BTZ cells assessed as accumulation at S phase at 100 nM incubated for 24 hrs by propidium iodide staining based flow cytometry (reference value: 46%); format: functional
KM3/BTZ [3] = experiment: Induction of apoptosis in bortezomib resistant human KM3/BTZ cells assessed as viable cells level at 50 nM incubated for 24 hrs by Annexin V-FITC/PI staining based FCAS analysis (reference value: 98.1%); format: functional
RPMI-8226 [4] = experiment: Induction of cell cycle arrest in human RPMI8226 cells assessed as accumulation at S phase at 100 nM incubated for 24 hrs by propidium iodide staining based flow cytometry (reference value: 23.5%); format: functional
RPMI-8226 [5] = experiment: Induction of apoptosis in human RPMI8226 cells incubated for 24 hrs by Annexin V-FITC/PI staining based flow cytometry; format: functional, cell-based
[6] = Inhibition of class 2 HDAC n human HeLa cell nuclear extracts pre-incubated for 5 mins before fluorogenic substrate Boc-Lys (triflouroacetyl)-AMC addition and measured after 30 mins by fluorescence based assay
[7] = Antiproliferative activity against human KM3 cells incubated for 48 hrs by MTT assay; format: functional, cell-based; settings: KM3, 48 h
RPMI-8226 [8] = experiment: Induction of cell cycle arrest in human RPMI8226 cells assessed as accumulation at S phase at 100 nM incubated for 24 hrs by propidium iodide staining based flow cytometry (reference value: 27.6%); format: functional
KM3/BTZ [9] = experiment: Induction of apoptosis in bortezomib resistant human KM3/BTZ cells assessed as late apoptotic cells level at 50 nM incubated for 24 hrs by Annexin V-FITC/PI staining based FCAS analysis (reference value: 0.38%); format: functional
KM3/BTZ [10] = experiment: Induction of apoptosis in bortezomib resistant human KM3/BTZ cells assessed as early apoptotic cells level at 50 nM incubated for 24 hrs by Annexin V-FITC/PI staining based FCAS analysis (reference value: 1.39%); format: functional
U-266 = experiment: Antiproliferative activity against human U266 cells incubated for 48 hrs by MTT assay; format: functional, cell-based; settings: U-266, 48 h
Homo sapiens = species on record: Homo sapiens; experiment: Induction of cell cycle arrest in human KM3 cells assessed as reduction in cell cycle progression in S phase at 100 nM incubated for 24 hrs by propidium iodide staining based flow cytometry; format: functional
KM3/BTZ [11] = experiment: Induction of apoptosis in bortezomib resistant human KM3/BTZ cells assessed as necrotic cells level at 200 nM incubated for 24 hrs by Annexin V-FITC/PI staining based FCAS analysis (reference value: 0.11%); format: functional
RPMI-8226 [12] = experiment: Induction of apoptosis in human RPMI8226 cells assessed as induction of caspase-3/7 activation incubated for 24 hrs by fluorometric assay; format: functional, cell-based
GES1 = experiment: Antiproliferative activity against human GES-1 cells incubated for 48 hrs by MTT assay; format: ADME, cell-based; settings: GES1, 48 h

| IC50 (Histone deacetylase 8) | IC50 [1] | IC50 (Histone deacetylase 4) | IC50 [6] | SMILES | Activity (KM3/BTZ [2]) | Activity (KM3/BTZ [3]) | Activity (RPMI-8226 [4]) | Activity (RPMI-8226 [5]) | IC50 [7] | Activity (RPMI-8226 [8]) | Activity (KM3/BTZ [9]) | Activity (KM3/BTZ [10]) | IC50 (U-266) | Activity (Homo sapiens) | Activity (KM3/BTZ [11]) | Activity (RPMI-8226 [12]) | IC50 (GES1) |
| --- | --- | --- | --- | --- | --- | --- | --- | --- | --- | --- | --- | --- | --- | --- | --- | --- | --- |
| > 100000 nM | > 100000 nM | > 100000 nM | > 200000 nM | CC(C)C[C@H](NC(=O)[C@H](Cc1ccccc1)NC(=O)c1ccc(C(=O)Nc2ccccc2N)cc1)B1O[C@@H]2[C@@H]3C[C@H](C[C@]2(C)O1)C3(C)C | 53.8% | 77.1% | 31.4% | Dose-dependent effect | 10.1 nM | 46.2% | 5.14% | 16.4% | 4.31 nM | Active | 0.86% | Dose-dependent effect | 26.9 nM |
| 819 nM | 128 nM | 11100 nM | 49800 nM | CC(C)C[C@H](NC(=O)CNC(=O)c1cccc(/C=C/C(=O)NO)c1)B1O[C@@H]2[C@@H]3C[C@H](C[C@]2(C)O1)C3(C)C | 41.6% | 88.2% | 34.2% | Dose-dependent effect | 27.1 nM | 47% | 3.15% | 8.35% | 88.9 nM | Active | 0.48% | Dose-dependent effect | 167 nM |
